Experiment [1] relates to LMB genes (ER alpha, ER gamma, StAR). The arrangement: species or system largemouth bass (LMB). The settings on record: Table II, test not stated.
Experiment [2] relates to estrogen receptors alpha, beta, and gamma, and Vtg 1 mRNA. The experiment can be described thus: Real-time PCR of ER and Vtg 1 mRNA in LMB liver. The experiment is classed as in vivo, largemouth bass (LMB). The note with it: male LMB liver. The source says: Experimental Design and Sample Collection: Adult male LMB were purchased from American Sports Fish Hatchery (Montgomery, Ala.) and maintained in fiberglass tanks as previously described (Larkin et al., Comp. Biochem. Physiol. B. Biochem. Mol. Biol. 133:543-557, 2002; Larkin et al., Marine Environ. Res. 54:395-399, 2002; and Larkin et al., Comparative Biochemistry and Physiology 133:543-557, 2002). Array technology as a tool to monitor exposure of fish to xenoestrogens. Marine Environ. Res., 2002; Bowman et al., Mol. Cell. Endocrinol. 196:67-77, 2002). Each fish was injected IP with either 50 mg/kg 4-NP (Fluka, St. Louis, Mo. # 74430), the combination of 50 mg/kg 4-NP and 1.0 mg/kg ICI 182,780 (Tocris Cookson), or vehicle, which consisted of ethanol and DMSO (Sigma, St. Louis, Mo. #5879). Each dose was dissolved in 1 ml of ethanol and then diluted to the appropriate concentration with DMSO. The fish were euthanized by submersion in a water bath containing 50-100 ppm […] 48 hours post injection and sacrificed by a sharp blow to the head followed by cervical transaction. The livers were excised and immediately flash frozen in liquid nitrogen. The frozen tissues were stored at −80° C. until RNA was isolated.
RNA Isolation: Isolation of total RNA from liver tissue was performed with the RNA Stat-60 reagent (Tel-test). Briefly, 30 mg-50 mg of tissue stored in RNA later was homogenized in 0.9 mls STAT 60, choloroform was added, and the mixture was centrifuged at 12,000 g for 15 minutes at 4° C. The extraction process was repeated and the pooled RNA was added to 500 μl isopropanol and allowed to precipitate at −20° C. for at least one hour. Following centrifugation at 12,000 g for 50 minutes, the pellet was washed with 70% ethanol, air dried and resuspended in an appropriate volume (50 μl-120 μl of RNA secure. The samples were treated with RNA secure (Ambion, Austin Tex. #7010) to inactivate contaminating RNases. All isolated RNA was treated with DNase solution (Ambion, Austin, Tex. #1906) following the manufacture's protocol. For all RNA samples, the quantity and quality of total RNA was assessed by spectrophotometric readings at 260 nm and by electrophoresis through a 1% formaldahyde agarose gel stained with ethidium bromide.
Real-Time PCR: Real time PCR was performed using reagents and a 5700 thermocycler purchased from Applied Biosystems (ABI, Foster City, Calif.). The nucleotide sequences of the primers for the ER subtypes and Vtg 1 are as follows: 5′, […] (SEQ ID NO:563) AND 5′[…] (SEQ ID NO:564). Probes and primers for the ER subtypes and Vtg 1 are described in Bowman et al., Ecotoxicology 8:399-416, 1999; and Bowman et al., Mol. Cell Endocrinol. 196:67-77, 2002. Each real time PCR reaction consisted of 0.01-0.2 μg of reverse transcribed total RNA from liver tissue, 1× universal Taqman master mix (ABI, Foster City, Calif.), and primers and probes in a 25 μl reaction. […] Statistical differences between the treatments were determined by one way analysis of variance with Dunnets post-hoc analysis.
Measurement of ER and Vtg 1 mRNA by real-time PCR: Real-time PCR is a sensitive assay that can be used to quantitate expression levels of genes. Using this technology, assays were designed to quantitate the expression of 4 genes, estrogen receptors alpha, beta, and gamma, and Vtg 1 in LMB following exposure to 4-NP and 4-NP/ICI 182,780. […]
Background: In qPCR the cycle at which signal appears reflects the starting amount.

Experiment [3] relates to hepatic mRNA of adult male SHMs. Nature of the experiment: SHM cDNA macroarray (30 genes): hepatic gene expression profiles of exposed fish. It counts as in vivo, sheepshead minnow (SHM).
Experiment [4] deals with hepatic RNA of LMB. The experiment can be described thus: LMB gene array (132 genes): hepatic gene expression after IP injection. It counts as in vivo, largemouth bass (LMB). The note with it: male LMB liver, two-fold cutoff vs control; for LMB50-1 (clone 50-1) expression / LMB67-1 signal peptidase, endopeptidase expression: 48 h after single IP 4-NP 50 mg/kg.
Experiment [5] has as its system hepatic mRNA of adult male SHMs. Nature of the experiment: SHM estrogen responsive macroarray (54 cDNA clones), E2 exposure. The experiment is classed as in vivo, sheepshead minnow (SHM). The settings on record: adult male SHM liver; aqueous 100 ng/L E2 in TEG, 5 days; vs TEG control. As for the experimental part: Total hepatic mRNA was extracted from 5 adult male SHMs treated by aqueous exposure to 100 ng/L of E2 dissolved in triethylene glycol (TEG) for 5 days. Minipreps of 54 cDNA clones derived from DD analysis were PCR amplified using primers specific to the M13 sequence of the cloning vector (pGEMT-Easy, Promega, Madison,Wis.). After the PCR reactions the products were purified in spin-columns (Qiagen, Chatsworth, Calif.) and then concentrated in a speed-vac. The cDNA samples were denatured with NaOH, heated to 65° C. for 10 min, and then immediately quenched on ice. 20×SSC (3M NaCl, 0.3M sodium citrate, pH 7.0) that contained 0.01 mM bromophenol blue was then added to the samples to yield a final concentration of 0.3M NaOH, 6×SSC, and 100 ng/μL cDNA template. The samples were then robotically spotted (Biomek 2000, Beckman Coulter, Fullerton, Calif.) in duplicate onto neutral nylon membranes (Fisher Scientific, Pittsburgh, Pa.) using 100 nL pins. The membranes were UV cross-linked and then stored under vacuum at room temperature until hybridized. Various controls, which provided information about the cDNA labeling efficiency, blocking, and non-specific binding of the arrays, were also spotted onto the membranes. These controls included: 3 Arabidopsis thaliana cDNA clones, Cot-1 repetitive sequences, poly A sequence (SpotReport 3, Stratagene, La Jolla, Calif.), and a M13 sequence (vector but no cDNA insert). Labeling of RNA probes and hybridization of blots was performed as described in Example 1.
FIGS. 4A and 4B contain blots of control (TEG-treated) and E2-treated fish, respectively. FIG. 4C is a plot of the mean intensity values. Genes on the macroarray were designated as constitutive genes if their intensity values fell within the range of the highest (1.27) and lowest (0.83) value of the 17 cDNA clones that were used to normalize the data.

Where [6] appears, read: 48 h after single IP injection, 4-NP 50 mg/kg alone or with ICI 182,780 1.0 mg/kg, not significant.
The mark [7] stands for this setting: 48 h after single IP dose: E2 2.5 mg/kg or 4-NP 50 mg/kg.
The mark [8] stands for this setting: 48 h after single IP dose: E2 2.5 mg/kg or 4-NP 50 mg/kg, listed as NP.
The mark [9] stands for this setting: 48 h after single IP dose: E2 2.5 mg/kg, 4-NP 50 mg/kg or p,p′-DDE 100 mg/kg.
Setting [10] is: 48 h after single IP dose: E2 2.5 mg/kg, 4-NP 50 mg/kg or p,p′-DDE 100 mg/kg, listed as NP.
[11] abbreviates: adult male SHM liver, aqueous E2 65.14 ng/L 5 d, EE2 109 ng/L 4 d, DES 100 ng/L 4 d, pNP 11.81 μg/L 5 d, MXC 5.59 μg/L 13 d, ES 590.3 ng/L, vs untreated control.
Where [12] appears, read: adult male SHM liver, aqueous E2 65.14 ng/L 5 d, vs untreated control.

We go through 3 compounds from patent US20040166509A1, “Detecting hormonally active compounds” (priority 2002, published 2004).

Turning to `CCCCCCCCCc1ccc(O)cc1` [4-NP, para-nonylphenol], the “LMB_ER-ALPHA ESTROGEN RECEPTOR ALPHA differentially expressed by” value in experiment [1] is reported as “up-reg E2;”. Further, the “Vtg 1 message levels increase over controls” value in experiment [2] (48 h after single IP 4-NP 50 mg/kg, p<0.05) is listed as “approximately 40 fold”. Moreover, the “ER α mRNA increase over controls” value in experiment [2] (48 h after single IP injection, 4-NP 50 mg/kg alone (p<0.05) or with ICI 182,780 1.0 mg/kg (p<0.08)) is reported as 80 fold. For the same compound, in experiment [2] (setting [6]), the “ER β mRNA decrease vs controls” value is given as “approximately 1.3 fold” and the “ER γ mRNA decrease vs controls” value was about 2.6 fold. The Regulation entry in experiment [3] (Estrogen receptor alpha (clone ID not given)) is on record as “up-reg E2; EE2,”. Besides, the Regulation result in experiment [3] (clone SHM2-1: vitellogenin alpha (2)) is “up-reg E2; EE2,”. Moreover, the Regulation result in experiment [3] (clone SHM11: Transferrin) was “dn-reg E2; EE2,”. The Regulation result in experiment [3] (clone SHM41: Ubiquitin-conjugating enzyme 9) is given as “up-reg NP”. Further, the Regulation entry in experiment [3] (clone SHM72-3: Coagulation Factor XI) is listed as “up-reg E2; EE2,”. For the same compound, the Regulation result in experiment [3] (clone SHM76-2: Alphal-microglobulin/bikunin precursor (AMBP) protein) was “d-reg E2; EE2,”. In experiment [4], the “LMB50-1 (clone 50-1) expression” value was “down-regulated” and the “LMB67-1 signal peptidase, endopeptidase expression” value was “up-regulated”. Also, in experiment [4] (listed as NP), the “LMB50-1 (clone 50-1) expression” value is given as “Down reg NP;” and the “LMB67-1 signal peptidase, endopeptidase expression” value is recorded as “Up-reg NP”. Moreover, in experiment [4] (setting [7]), the “LMB5 vitellogenin-2A expression” value was “Up reg E2;”, the “LMB92-1 (unidentified clone 92-1) expression” value is on record as “up-regulated”, the LMB94-1 transferrin expression result is “down-regulated” and the “LMB112-1 cathepsin (Aspartic protease) expression” value is “up-regulated”. Moreover, in experiment [4] (setting [7]), the “LMB141 vitellogenin-3 expression” value is recorded as “up reg E2; NP,” and the “four Vtg genes expression” value is “up-regulated (only genes that exhibit a two-fold or greater change in expression were considered to be differentially regulated)”. In experiment [4] (setting [8]), the “LMB92-1 (unidentified clone 92-1) expression” value is given as “up-reg E2;” and the LMB94-1 transferrin expression result is “Down-reg”. In experiment [4] (setting [9]), the “LMB83 vitellogenin-2 (Vtg 2) expression” value was “up-reg E2;”, the “LMB87 vitellogenin-1 (Vtg 1) expression” value is given as “up-reg E2;”, the “LMB97 choriogenin-3 expression” value is “up-regulated” and the “LMB108-1 choriogenin-2 expression” value is “up-regulated”. In experiment [4] (setting [10]), the “LMB97 choriogenin-3 expression” value is on record as “Up-reg E2;” and the “LMB108-1 choriogenin-2 expression” value was “Up-reg E2; NP;”.
As to `C[C@]12CC[C@@H]3c4ccc(O)cc4CC[C@H]3[C@@H]1CC[C@@H]2O` [E2, estradiol], in experiment [5], the “choriogenic protein (ZP2) expression” value is listed as “up-regulated (intensity value above ˜1.27 was designated an E2 up-regulated gene)”, the transferrin expression entry was “down-regulated (a value below ˜0.83 was designated an E2 down-regulated gene)”, the “vitellogenin α expression” value is given as “up-regulated (intensity value above ˜1.27 was designated an E2 up-regulated gene)” and the “vitellogenin β expression” value is given as “up-regulated (intensity value above ˜1.27 was designated an E2 up-regulated gene)”. In experiment [3] (setting [11]), the “ER α expression” value is “up-regulated (any cDNA clones in the macroarray experiments above a ˜1.66-fold induction were designated as up-regulated genes)” and the “Vtg α expression” value is “up-regulated (any cDNA clones in the macroarray experiments above a ˜1.66-fold induction were designated as up-regulated genes)”. Also, in experiment [3] (setting [12]), the “Vtg β expression” value is listed as “up-regulated (any cDNA clones in the macroarray experiments above a ˜1.66-fold induction were designated as up-regulated genes)”, the “alpha-1-microglobulin/bikunin precursor protein expression” value is on record as “down-regulated (any cDNA clones that had a value below ˜0.42 were designated as down-regulated)”, the beta actin expression entry is listed as “down-regulated (any cDNA clones that had a value below ˜0.42 were designated as down-regulated)” and the “choriogenin 2 expression” value is reported as “up-regulated (any cDNA clones in the macroarray experiments above a ˜1.66-fold induction were designated as up-regulated genes)”. Moreover, in experiment [3] (setting [12]), the “choriogenin 3 expression” value is reported as “up-regulated (any cDNA clones in the macroarray experiments above a ˜1.66-fold induction were designated as up-regulated genes)”, the “coagulation factor XI expression” value is on record as “up-regulated (any cDNA clones in the macroarray experiments above a ˜1.66-fold induction were designated as up-regulated genes)” and the transferrin expression entry is on record as “down-regulated (any cDNA clones that had a value below ˜0.42 were designated as down-regulated)”. The “clone 132-2 expression” value in experiment [4] (48 h after single IP E2 2.5 mg/kg) was “up-regulated (only genes that exhibit a two-fold or greater change in expression were considered to be differentially regulated)”. In addition, the “four Vtg genes expression” value in experiment [4] (setting [7]) is listed as “up-regulated (only genes that exhibit a two-fold or greater change in expression were considered to be differentially regulated)”.
Regarding `CC[C@H](CC[C@@H](C)[C@H]1CC[C@H]2[C@@H]3CC=C4C[C@@H](O)CC[C@]4(C)[C@H]3CC[C@]12C)C(C)C` [b-sitosterol], the “LMB_STAR STAR PROTEIN differentially expressed by” value in experiment [1] is listed as “dn-reg b-”.
